Columns and labels:
[1] = Forced degradation of ethanolic solutions of LTB4 (acid form and Na salt); format: physicochemical
Protocol: The ethanolic solution of LTB4 (acid form) (EtOH/water, 95/5) obtained from the manufacturer (Cascade Biochem, UK) was diluted with EtOH/water, 95/5 to generate ethanolic solutions of LTB4 (acid form) at 9 and 0.9 mg/ml. Ethanolic solutions of the sodium salt of LTB4 at 9 and 0.9 mg/ml were obtained by adding 1.05 equivalent of sodium hydroxide. Solutions of the sodium salt of LTB4 at the concentration of 9 and 0.9 mg/ml in 75/25 EtOH/10 mM glycine in water at pH 10.5 (sodium hydroxide), were obtained by mixing 3 volumes of solutions of the sodium salt of LTB4 at 12 and 1.2 mg/ml in EtOH/water, 95/5 with 1 volume of 40 mM glycine buffer at pH 10.5. Solutions were dispensed in 2 ml vials for storage under air in the dark at −80° C. and 40±5° C. for 17 months prior to reverse phase HPLC analysis of LTB4 and impurities as described in Example 1.

[2] = Pharmacokinetics of LTB4 in rats after i.v., i.j. and s.c. administration (plasma ELISA); format: in vivo, female Sprague-Dawley rats; details: rat
Protocol: In this example, the pharmacokinetics of LTB4 in rats following administration by three distinct routes, intravenous (i.v.), intra-jejunal (i.j.) and sub-cutaneous (s.c.) was investigated.
Three groups of three female Sprague-Dawley rats (weighing ˜250 g) were used; animals were fasted for 18 hours, anesthetised with ketamine/xylazine and their jugular veins were canulated to allow for repeated blood sampling. LTB4 was administered at the dose of 50 μg/kg at the dose volume of 4 ml/kg for all routes. Blood samples (0.5 ml/sample) where taken at 0, 0.5, 1, 2, 5, 15, 30, and 60 minutes following LTB4 injection. The blood samples where immediately anti-coagulated with EDTA and transferred into an ice-water bath until centrifugation for plasma isolation. Plasma samples were stored at −80° C. until assayed for LTB4 content using a commercial ELISA (Cayman Chemicals, Ann Arbor, Mich., USA). The i.v administration (15 sec. bolus) of LTB4 was done through the tail vein; for i.j. administration, LTB4 was directly injected in the jejunum after opening of the abdominal cavity; s.c. administration was done in the dorsal region.

impurity level ([1]; 0.9 mg/ml in 95/5 EtOH/water, 17 months at 40° C.): 62 % of AUC
level of impurities ([1]; 9.0 mg/ml in EtOH/water 95/5, 17 months at 40° C., AUC at 270 nm): 100 % of AUC
time of maximum plasma LTB4 level ([2]; i.j. administration, 50 μg/kg): 5 min
time of return of LTB4 plasma levels to baseline ([2]; i.j. administration, 50 μg/kg): 30 min
AUC for LTB4 plasma concentration, comparison of routes ([2]; i.v. injection, 50 μg/kg, compared with i.j. and s.c.): highest AUC
AUC for i.j. injection relative to that of i.v. LTB4 ([2]; in vivo, 50 ug/kg): 35%
SMILES: CCCCC/C=C\C[C@@H](O)/C=C/C=C/C=C\[C@@H](O)CCCC(=O)O [LTB4, 5S,12R-dihydroxy-6,8,10,14(Z,E,E,Z)-eicosatetrae-noic acid]

— patent publication US8664271B2, “Stabilized leukotriene B4 (LTB4) agent pharmaceutical formulation” (LTB4 Sweden AB, priority 2004, dated 2014)
